Measured values published in patent publication US20230285387A1, “COMBINATION OF MORPHINAN COMPOUNDS AND ANTI[…] THE TREATMENT OF PS[…], NEUROLOGICAL DISEASES, I[…] CHRONIC PAIN AND BRAIN INJURY” (Concert Pharmaceuticals, Inc., priority 2008, published 2023).
Where a name gives a salt, the structure may show the parent alone.

Key:
[1] = biological target: T1, CYP2D6 (Homo sapiens, UniProt P10635); experiment: Metabolic stability in CYP2D6 SUPERSOMES; format: in vitro ADME; conditions: human, recombinant human CYP2D6 SUPERSOMES; 1 μM test compound, 2 mM NADPH, 0.1 M potassium phosphate buffer pH 7.4, 37° C., 0-30 minutes, parent remaining by LC-MS/MS; read-out: t1/2 ± SD (calculated in vitro half-life in SUPERSOMES)
T1 construct: purchased GenTest (Woburn, Mass., USA)
T1 sequence (P10635 whole entry): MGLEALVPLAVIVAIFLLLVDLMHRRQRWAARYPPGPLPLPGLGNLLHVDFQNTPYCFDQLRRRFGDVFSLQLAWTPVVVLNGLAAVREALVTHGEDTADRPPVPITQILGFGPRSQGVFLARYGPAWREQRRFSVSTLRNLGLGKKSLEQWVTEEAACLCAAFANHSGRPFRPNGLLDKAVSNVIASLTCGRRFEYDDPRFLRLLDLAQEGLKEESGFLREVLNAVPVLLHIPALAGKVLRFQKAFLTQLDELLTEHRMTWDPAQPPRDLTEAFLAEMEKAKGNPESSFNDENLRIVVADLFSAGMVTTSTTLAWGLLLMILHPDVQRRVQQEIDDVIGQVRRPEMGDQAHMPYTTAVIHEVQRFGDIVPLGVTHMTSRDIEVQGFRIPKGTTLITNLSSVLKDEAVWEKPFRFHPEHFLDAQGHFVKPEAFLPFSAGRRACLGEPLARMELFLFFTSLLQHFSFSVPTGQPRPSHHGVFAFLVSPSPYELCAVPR
Method: (§1) Human CYP2D6 SUPERSOMES™ were purchased from GenTest (Woburn, Mass., USA). […] The 7.5 mM stock solutions were diluted to 50 μM in acetonitrile (ACN). The […] CYP2D6 supersomes were diluted to 62.5 μmol/mL in 0.1 M potassium phosphate buffer, pH 7.4, containing 3 mM MgCl2. The diluted SUPERSOMES™ were added to wells of a 96-well deep-well polypropylene plate in triplicate. 10 μL of the 50 μM test compound was added to the supersomes and the mixture was pre-warmed for 10 minutes. Reactions were initiated by addition of pre-warmed NADPH solution. The final reaction volume was 0.5 mL and contained 50 μmol/mL CYP2D6 SUPERSOMES™, 1 μM test compound, and 2 mM NADPH in 0.1 M potassium phosphate buffer, pH 7.4, and 3 mM MgCl2. The reaction mixtures were incubated at 37° C. and 50 μL aliquots were removed at 0, 5, 10, 20, and 30 minutes and added to shallow-well 96-well plates which contained 50 μL of ice-cold ACN with internal standard to stop the reactions. The plates were stored at 4° C. for 20 minutes after which 100 μL of water was added to the wells of the plate before centrifugation to pellet precipitated proteins. Supernatants were transferred to another 96-well plate and analyzed for amounts of parent remaining by LC-MS/MS using an Applied Bio-systems API 4000 mass spectrometer.
(§2) The in vitro half-life (t1/2) for each of the test compounds was calculated from the slopes of the linear regression of % parent remaining (ln) vs incubation time relationship: in vitro t1/2=0.693/k, where k=−[slope of linear regression of % parent remaining(ln) vs incubation time]. Data analysis was performed using Microsoft Excel Software.

[2] = biological target: T2, Human CYP2D6 SUPERSOMES (Homo sapiens, UniProt P10635); experiment: Metabolic stability in CYP2D6 SUPERSOMES; format: in vitro ADME; conditions: 1 μM test compound, 2 mM NADPH, 0.1 M potassium phosphate buffer pH 7.4, 37° C., 0-30 minutes, parent remaining by LC-MS/MS
T2 construct: purchased GenTest (Woburn, Mass., USA)
T2 sequence (P10635 whole entry): as above
Method: as §1, §2

| Compound | half-life at 1 μM [1] [min] | t1/2 ± SD (calculated in vitro half-life in SUPERSOMES) [2] [min] |
| --- | --- | --- |
| [2H]C([2H])([2H])C([2H])([2H])Oc1ccc2c(c1)[C@]13CCCC[C@@H]1C(C2)N(C)CC3 (single isomer, unassigned; (+)) [Compound 104, (+)-3-(Ethoxy-d5)-17-methyl-(9α,13α,14α)-morphinan hydrochloride] | 49.1 ± 4.1 |  |
| [2H]C([2H])([2H])C([2H])(Oc1ccc2c(c1)[C@]13CCCC[C@@H]1C(C2)N(C)CC3)C([2H])([2H])[2H] (single isomer, unassigned; (+)) [Compound 106, (+)-3-(Isopropoxy-d7)-17-methyl-(9α,13α,14α)-morphinan] | 36 ± 2.8 |  |
| [2H]C([2H])([2H])N1CC[C@@]23CCCC[C@@H]2[C@@H]1Cc1ccc(OC([2H])(C([2H])([2H])[2H])C([2H])([2H])[2H])cc13 [Compound 102, (+)-3-(Isopropoxy-d7)-17-(methyl-d3)-(9α,13α,14α)-morphinan] |  | 39.0 ± 1.9 |
| [2H]C([2H])([2H])Oc1ccc2c(c1)[C@]13CCCC[C@@H]1[C@H](C2)N(C([2H])([2H])[2H])CC3 [Test Compound, (+)-3-d3-methoxy-17-d3-methyl-(9α,13α,14α)-morphinan] | 5.6 ± 1.5 |  |
